Test: degradation kinetics (mass loss) of copolymers and of microbeads from copolymer blends (FIGS. 12A, 12B)
Assay type: physicochemical
Excerpt: The illustrative examples of achievable degradation profile are presented on FIGS. 12A and 12B.
Adjusting ratio of iodinated structural component (PrD-diI2DAT) and rubbery component (PEG400 or PEG1000), ratio of Carbonate to Oxalate bonds in single copolymer or utilizing blends of copolymers, a wide spectrum of degradation profiles could be achieved, including multi-step degradation.

Copolymer 50% PrD-di I2DAT-co-50% PEG1K with 100% carbonate bonds [Formula #4]
degradation kinetic (mass loss), result in words: slow degradation
